Test results: PMC8150775, “Repositioning Azelnidipine as a Dual Inhibitor Targeting CD47/SIRPα and TIGIT/PVR Pathways for Cancer Immuno-Therapy” (Biomolecules, 2021)

Experiments:
[1] = target: T1, human CD47/SIRPα (Homo sapiens, UniProt P78324); assay: Blocking assay, human SIRPα protein binding to CHOK1-hCD47 cells; conditions: concentration gradient; read-out: IC50, blocking human CD47/SIRPα (hSirpα binding)
T1 construct: purchased ACRO Biosystem SIA-H5251; host or cells: soluble protein purchased; CD47 on CHOK1-hCD47 cells (lenti-viral transfection)
T1 sequence (P78324 31-370 limits assumed): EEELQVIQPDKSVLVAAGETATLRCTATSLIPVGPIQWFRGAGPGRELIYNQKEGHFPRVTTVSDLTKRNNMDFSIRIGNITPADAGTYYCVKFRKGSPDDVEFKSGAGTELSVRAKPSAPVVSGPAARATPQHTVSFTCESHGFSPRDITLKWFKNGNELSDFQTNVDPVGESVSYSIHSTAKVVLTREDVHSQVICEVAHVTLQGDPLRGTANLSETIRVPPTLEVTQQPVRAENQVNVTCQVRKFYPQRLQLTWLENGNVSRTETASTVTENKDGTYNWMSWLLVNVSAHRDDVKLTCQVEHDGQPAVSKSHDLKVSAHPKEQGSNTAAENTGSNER
Experimental: (§1) The abilities of small molecule inhibitors (SMIs) (purchased from TargetMol, Shanghai, China) to block the binding of SIRPα protein to CHOK1-CD47 cells or PVR protein to CHOK1-TIGIT cells were determined by flow cytometry, as previously reported. The SMIs at indicated concentrations were incubated with Fc-tagged SIRPα or PVR protein for 30 min at 4°C, followed by incubating with the indicated cells for another 30 min. Human SIRPα protein (SIA-H5251, ACRO Biosystem, Beijing, China), mouse SIRPα protein (SIA-M5258, ACRO Biosystem, Beijing, China), human PVR protein (CD5-H82F6, ACRO Biosystem, Beijing, China), and mouse PVR protein (50259-M03H, Sino Biological, Beijing, China) were used. PE-conjugated anti-human IgG antibody was used to detect the Fc protein bind to cells. Cells incubated with the Fc proteins and anti-human IgG antibody without the SMIs serve as the positive control. The mean fluorescent intensity (MFI) of each sample was detected and recorded by a flow cytometry. The blocking efficacy of the SMIs was calculated as the equation: (MFI of the positive control-MFI of the SMI)/MFI of the positive control × 100%.

[2] = system: CT26 cells; assay: Phagocytosis assay, BMDM co-cultured with CFSE-labeled CT26 cells; assay type: cell-based, mouse; conditions: 20 μM, 4 h
Experimental: Bone marrow-derived macrophage (BMDM) cells were isolated from C57BL/6 or BALB/c mice and induced with 20 ng/mL of GM-CSF (Peprotech, Rocky Hill, CT, USA) for 7 days. Meanwhile, the medium was replaced with fresh medium containing the cytokine and the adherent cells were harvested. Phagocytosis assays were performed by a co-culture of the BMDM macrophages with carboxyfluorescein succinimidyl ester-labeled (CFSE^+) or GFP^+ tumor cells at a ratio of 1:4 in a serum-free medium at 37 °C for 4 h, in low-attachment 96-well tissue culture plates (Corning, New York, NY, USA). The cells were harvested and the macrophages were identified by a flow cytometry using anti-F4/80 antibody (eBioscience, San Diego, CA, USA). Then, 7-AAD (eBioscience) was used to exclude the dead cells. The effects of azelnidipine (20 μM) on phagocytosis by BMDM cells were tested, and the anti-CD47 antibody (clone: miap301) were used as the positive control. Phagocytosis rate was determined with the formulation: F4/80^+GFP^+ or F4/80^+CFSE^+ cells/ Total F4/80^+ cells.
Figure 4 Azelnidipine enhances macrophage mediated phagocytosis of the tumor cells. The effects of the azelnidipine on the phagocytosis of the macrophages were tested by a co-culture of the tumor cells and BMDM cell derived from C57BL/6 or BALB/c mice. […] GFP^+ or CFSE^+ BMDMs were detected by a flow cytometry. […]

[3] = target: T2, human TIGIT/PVR (Homo sapiens, UniProt P15151); assay: Blocking assay, human PVR protein binding to CHOK1-hTIGIT cells; conditions: concentration gradient; read-out: IC50, blocking human TIGIT/PVR (hPVR binding)
T2 construct: purchased ACRO Biosystem CD5-H82F6; host or cells: soluble protein purchased; TIGIT on CHOK1-hTIGIT cells (lenti-viral transfection)
T2 sequence (P15151 21-343 limits assumed): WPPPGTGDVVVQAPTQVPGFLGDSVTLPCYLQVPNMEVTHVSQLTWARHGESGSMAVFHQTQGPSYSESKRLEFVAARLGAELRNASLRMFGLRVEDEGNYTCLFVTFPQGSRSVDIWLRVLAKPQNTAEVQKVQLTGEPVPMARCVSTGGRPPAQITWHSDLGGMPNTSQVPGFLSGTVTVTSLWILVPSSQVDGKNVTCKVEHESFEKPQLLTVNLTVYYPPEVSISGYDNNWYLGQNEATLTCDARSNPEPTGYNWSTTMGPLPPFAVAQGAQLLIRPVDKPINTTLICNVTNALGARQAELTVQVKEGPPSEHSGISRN
Experimental: as §1

[4] = system: THP-1 macrophages; set-up: method as in PMID 29398679, PMID 20606305; conditions: cited from earlier work

Question: Which IC50 [1] does the source give for `CC1=C(C(=O)OC(C)C)C(c2cccc([N+](=O)[O-])c2)C(C(=O)OC2CN(C(c3ccccc3)c3ccccc3)C2)=C(N)N1` (stereo not shown) [Azelnidipine] here?
Answer: ~36 µM

Question: And the “phagocytosis of CT26 cells by BMDM cells” value [2]?
Answer: significantly enhance

Question: And the IC50 [3]?
Answer: ~28 µM

Question: And the “differentiation and activation of THP-1 macrophages” value [4]?
Answer: inhibit the differentiation and activation
